Measured values as given in patent US6878690B2, “Compounds and methods” (PharmAxis Pty Ltd., priority 2000, dated 2005).

Experiments:
[1] = test system: lymphocyte migration into the spleen; test: Inhibition of lymphocyte migration into lymphoid tissue (spleen); assay type: in vivo, Balb/C mice; conditions: intravenous dose of 5 mg of test compound together with labelled lymphocytes; spleens removed 1.5 hours after injection
Text: In the present example, spleens from specific pathogen free 6-8 week old female Balb/C mice [19-21 g] were used to prepare a single cell suspension in the usual manner in mixed lymphocyte culture medium (DMEM plus glucose, folic acid, L-asparagine, sodium bicarbonate, L-glutamine, sodium pyruvate, HEPES, 2-mercaptoethanol, penicillin, streptomycin, neomycin, and 2% fetal calf serum) by pushing through a stainless steel screen. Following cell collection the red blood cells were lysed in the usual manner by treating with a solution of ammonium chloride, EDTA and sodium hydrogen carbonate (pH 7.3) and the preparation strained (Falcon 2350 cell strainer). All cell preparative steps were performed on ice.
In order to deplete the preparation of B lymphocytes, the cells were suspended in purified rat anti-mouse CD45/B220 antibody (RA3-6B2 clone; PharMingen, USA) at a concentration of 4×10^7 cells per ml and incubated on ice for 20 minutes. An equal volume of mixed lymphocyte culture medium (as above) was then added and the cells centrifuged (200× g) and resuspended at a concentration of 1×10^7 cells per ml in BioMag goat ant-rat IgG (H&L) linked to magnetic beads (Bio Mag; Perseptive Diagnostics, Polysciences Inc, USA). Following a 20 minute incubation on ice, with agitation every 5 minutes, the goat anti-rat IgG/antibody complex was removed using magnetic separation (Dynal MPC-6, Dynal, USA). The magnetic separation procedure was repeated 4 times giving a cell population containing approximately 80-90% T lymphocytes (determined by FACS analysis).
The cells were then washed in Hanks media, resuspended in 5 ml of Hanks, and radio-labelled for 30 minutes at 37° C. with sodium chromate solution (^51Cr, 34 MBq/ml, Amersham, UK). The labelled cells were washed in PBS centrifuged (200×g) and a portion were resuspended at a concentration of 3×10^7 cells/ml in either PBS (negative control), or PBS containing the test compound (25 mg/ml), and stored on ice. Balb/C mice in the negative control and treatment groups received a volume of 0.2 ml of the labelled cell preparation by a lateral tail vein injection. Negative control mice received 0.2 ml of PBS together with 6×10^6 51chromium-labelled lymphocytes, and mice from the treated groups received an intravenous dose of 5 mg of the test compound together with 6 million ^51chromium-labelled lymphocytes. […]
Spleens from the recipient mice were removed 1.5 hours after injection and the cell-associated radioactivity (CPM) determined using a gamma counter (Packard Auto-Gamma 5650. IL, USA). Results (inhibition of lymphocyte migration into the spleen) were expressed as a percentage reduction in the CPM of the spleens from treated animals compared with negative controls.

[2] = test system: myelin basic protein (MBP)-specific T lymphocyte cell lines; test: Inhibition of T-lymphocyte migration across rat brain endothelial cell layer (Transwell, 51Cr-labelled cells); assay type: cell-based, Lewis rats; conditions: test substance 10 mmolar in upper well; 6 hours; in comparison with the negative control (glucose 6-phosphate); triplicate
Text: Vascular endothelial cells were isolated from rat brain capillaries taken from 6 to 8 week old Lewis rats according to the method of Risau et al. (Risau, W., Engelhardt, B., and Wekerle, H., (1990). Journal of Cell Biology, vol 110, p 1757-1766, which is incorporated herein by reference). Colonies of endothelial cells were purified from astroglial cells and pericytes by a Thy1.1-mediated complement lysis also after the method of Risau et al. (vide supra). The endothelial colonies, according to methods known in the art, were grown in Dulbecco's minimum essential medium (DMEM) high glucose supplemented, with 20% fetal calf serum (FCS), glutamine, pyruvate, nonessential amino acids, 4-(2-hydroxyethyl)-1-piperazine ethane sulfonic acid buffer (HEPES), kanamycin, amphotericin, heparin (all from Gibco) and 150 micrograms/ml endothelial growth supplement (Collaborative Biomedical Products). Upon reaching confluence, the endothelial cultures were washed with 0.2% EDTA in phosphate buffered saline (PBS), trypsinized (Trypsin-EDTA, 0.1% final concentration, Gibco), washed and again incubated with anti-Thy1.1 antibody for 40 minutes, washed and incubated with complement sufficient to lyse all Thy1.1+ cells (Behringwerke, AG, Marburg, Germany) at room temperature, washed and plated on matrigel-coated 6.5 mm Transwells, […] (Corning Costar Corporation, Cambridge, Mass.). The endothelial cell characteristics and confluence of the monolayer were checked by measuring the electrical resistance (World Precision Instruments, New Haven, U.S.A., model EVOM-G) and by staining with FITC-labeled phalloidin (Sigma). In order to study the effect of the agents of the present invention on T lymphocyte migration, myelin basic protein (MBP)-specific T lymphocyte cell lines were generated according to the method of Ben-Nun et al. (Ben-Nun, A., Wekerle, H. and Cohen, I. R., 1981). The rapid isolation of clonable antigen-specific T lymphocyte lines capable of mediating autoimmune encephalomyelitis. European Journal of Immunology. 1981, 11(3), 195-199; incorporated herein by reference) from the lymph nodes of Lewis rats that had been immunised with MBP in Freund's complete adjuvant. These cells were used for migration studies during the first 4 days of their propagation in IL-2 containing medium, following antigen (MBP) restimulation in the presence of antigen-presenting cells from irradiated spleen cells or thymocytes taken from normal Lewis rats. The antigen-activated T lymphocytes were radio-labelled with sodium chromate (^51Cr, 37 MBq/ml, Amersham, UK) for 30 minutes at 37° C. with occasional agitation, they were then washed three times with the DMEM culture medium and placed into the upper chamber of the Transwells at 5×10^5 cells in 100 microliters of migration medium. Test and control substance were included in the upper wells at final concentrations of 0.1, 1 and 10 mM. Cell migration was monitored by light microscopy in order to gauge progress of the experiment. […] The combined material was transferred into scintillation vials and the radioactivity of each tube determined by counting for 1 minute in a Packard Auto-Gamma 5650 (IL, USA) gamma counter. Each test and the control substance (glucose 6-phosphate) and no treatment were assessed in triplicate. […]

[3] = test system: passively transferred adjuvant arthritis; test: Passively transferred adjuvant induced arthritis; assay type: in vivo, DA rats; conditions: 37 mg/kg/day, end of the two week treatment period, FIG. 2
Method: Male DA rats 8 to 10 week old were immunised with three 100 microliter injections of Complete Freund's Adjuvant (CFA) intradermally at the base of the tail. The CFA was prepared by mixing 8 mg/ml of Mycobacterium butyricum (Difco Laboratories, USA) that had been ground to a fine powder using a mortar and pestle, in 85% light mineral oil (Sigma, USA) and 15% mannide monooleate (Sigma) and emulsifying this suspension, one part in one part saline. Thus, the final emulsion contained 4 mg/ml of M. butyricum.
Ten days after immunisation the rats were euthanased and the spleens removed aseptically. A single cell suspension was prepared in the usual manner in mixed lymphocyte culture medium (MLC) (Dulbecco's Modified Eagle's Medium (DMEM) plus glucose, folic acid, L-asparagine, sodium pyruvate, HEPES, 2-mercapto ethanol, penicillin, streptomycin, neomycin and 10% fetal calf serum) by pushing the spleens through a stainless steel sieve. The cells were placed in culture in MLC medium with 2 micrograms/ml concanavalin A added such that the lymphocyte concentration was 2 million cells per milliliter. These cells were cultured aseptically at 37° C. in an atmosphere containing 5% carbon dioxide for 72 hours.
Groups of 4 or 5 DA rats, 6 to 8 weeks of age were anesthetised with diethyl ether and implanted subcutaneously on the flank with Alzet 2002 (2 week delivery) or 2001 (1 week delivery) mini-osmotic pumps (Alza Corp., Palo Alto Calif., USA). One treatment group received phosphoric acid mono-(6-propyl-3,4,5-trihydroxy-tetrahydro-pyran-2-ylmethyl) ester in the one week delivery Alzet 2001 mini-osmotic pumps. The drug was delivered at a dose of 25 mg/kg/day. The control group for this experiment received identical mini-osmotic pumps containing normal saline. In a second experiment another group of DA rats received ethyl (3,4,5-trihydroxy-6-phosphonooxymethyl-tetrahydro-pyran-2-yl)-acetic acid ester in the two week delivery Alzet 2002 mini-osmotic pumps. This drug was delivered at a dose of 37 mg/kg/day. Control animals for this group received saline delivered in identical mini-osmotic pumps. The pumps in each case were implanted subcutaneously on the flank of each animal. […]
After 5 to 8 days, a characteristic thickening and cutaneous hyperemia of the distal joints of the hind legs became clinically apparent in the saline control animals. Disease severity was evaluated and graded in each group by taking daily measurements of the mediolateral widths of both ankle joints. The data were expressed as the mean of the change (compared with width prior to cell injection) in mediolateral ankle width expressed in millimeters (±standard error of the mean).

Structure (SMILES)	Percent Inhibition (relative to negative controls) of lymphocyte migration into spleens [1]	% inhibition ± SEM [2]	other results
N#CC1OC(COP(=O)([O-])[O-])C(O)C(O)C1O.[Na+].[Na+] (stereo not drawn) [6-cyano-3,4,5-trihydroxy-tetrahydro-pyran-2-ylmethyl phosphoric acid ester disodium salt]	45.0%		
CCCCCOC(=O)CC1OC(COP(=O)(O)O)C(O)C(O)C1O (stereo not drawn) [Pentyl (3,4,5-trihydroxy-6-phosphonooxymethyl-tetrahydro-pyran-2-yl)-acetic acid ester]		80 ± 4%	
CCOC(=O)CC1OC(COP(=O)([O-])O)C(O)C(O)C1O.[Na+] (stereo not drawn) [Ethyl (3,4,5-trihydroxy-6-phosphonooxymethyl-tetrahydro-pyran-2-yl)-acetic acid ester sodium salt]	32.4%		
O=C[C@H](O)[C@@H](O)[C@H](O)[C@H](O)COP(=O)(O)O [glucose 6-phosphate, reference compound]		0 ± 5%	
CCOC(=O)CC1OC(COP(=O)(O)O)C(O)C(O)C1O (stereo not drawn) [Ethyl (3,4,5-trihydroxy-6-phosphonooxymethyl-tetrahydro-pyran-2-yl)-acetic acid ester]		70 ± 4%	swelling in the affected joints of treated animals ([3]; two week Alzet 2002 pump subcutaneously, controls severe swelling): little swelling; disease status of the treated versus the control animals ([3]; two week Alzet 2002 pump): highly statistically significant difference
O=P([O-])(O)OCC1OCC(O)C(O)C1O.[Na+] (stereo not drawn) [mono-(3,4,5-trihydroxy-tetrahydro-pyran-2-ylmethyl)phosphoric acid ester mono sodium salt]	68.0%		
O=C(O)CC1OC(COP(=O)(O)O)C(O)C(O)C1O (stereo not drawn) [(3,4,5-trihydroxy-6-phosphonooxymethyl-tetrahydro-pyran-2-yl)-acetic acid]		32 ± 2%	
